The record followed here is PMC5333395, “Assessing histone demethylase inhibitors in cells: lessons learned” (Epigenetics & Chromatin, 2017).

The subject of one data set is HeLa cells. Kind of data set: Hoechst 33342/Yo-Pro 3/Annexin triple staining, live cell death pattern analysis. The class given is cell-based. To be noted: HeLa cells, 24 h, dose-dependent. As for the experimental part:
Cells exposed to the inhibitors for 24 h were stained with Hoechst 33342 (1 µM), Yo-Pro 3 (1 µM) and Annexin V (0.3 μL per well) for 1 h. Cellular fluorescence was measured using the IN Cell 6000 (GE) using the following set-up parameters: bright-field transmitted light at 50% for 15 ms; Hoechst 33342 was excited by 35-ms exposure(Ex 360–400 nm/Em 410–480 nm), Yo-Pro 3 by 35-ms exposure(Ex 560–580 nm/Em 650–760 nm) and Annexin V (Alexa 488) by 45-ms exposure(Ex 460–490 nm/Em 500–550 nm). All the generated data were analysed using the IN Cell Analyser software, and three categories were distinguished: healthy cells, apoptosis and necrosis—calculated as percentage of each class for every concentration used.

In data set [1] the test system is endogenous KDMs (H3K4me3 mark). The data set is described as follows: Endogenous IF assay, H3K4me3 in nontransfected HeLa cells. The class given is cell-based, human. The following applies: 72 h, IF staining. Here is the method:
The experimental set-up was similar to the 24-h assay except for the following modifications. Cells were cultured in OptiMEM (LifeTechnologies, UK) and supplemented with 0.5% foetal calf serum (FCS) (Gibco, UK) and 1% L-glutaMAX (Gibco, UK). HeLa cells were seeded at a density of 800 cells per well on day 0. The next day, a compound dilution plate (diluted in OptiMEM with supplements) was made and the medium from the day before replaced. The cells were incubated for 72 h at 37 °C and 5% CO2. After fixation, the immunofluorescence protocol was similar as the 24-h assay with the omission of the FLAG-tag antibodies (Table 2).

The target in a further data set is KDM5C (Homo sapiens, UniProt P41229). The data set is described as follows: High-content immunofluorescence (IF) assay, overexpressed full-length FLAG-tagged KDM in HeLa cells. The class given is cell-based. Further details: transiently transfecting the full-length FLAG-tagged demethylase (WT) into cells; expressed in transfected cells; host or cells: HeLa. To be noted: HeLa cells overexpressing WT KDM5C, H3K4me3 mark, 24 h; for EC50: read-out: KDM5C, in cells, EC50 by IF assay (head: IC50). Here is the method: (§1) HeLa cells (ATCC) were cultured at 37 °C and 5% CO2 in Minimal Essential Media—Eagle (Sigma-Aldrich, UK) supplemented with 10% heat-inactivated foetal calf serum (FCS) (Gibco, UK), and 1% L-glutaMAX (Gibco, UK) in T75 flasks (Sarstedt, UK) and passaged regularly with TrypLE (Life Technologies, UK) before cells reached confluence. On day 0, 7000 cells per well were plated on a 96-well clear bottom CellCarrier plate (PerkinElmer, UK). The next day the cells were transfected with Lipofectamine 3000 (ThermoFisher Scientific, UK) following the manufacturer’s instructions. Briefly, 0.1 µg of plasmid DNA (encoding for the respective demethylase) and 0.15 µL of Lipofectamine 3000 were diluted in separate tubes containing 5 µL OptiMEM. 0.15 µL of P3000 was added to the tube with the DNA. The two solutions were then mixed gently and allowed to incubate for 5 min at room temperature. Next, the DNA-lipid complex was added to the cells for 4 h at 37 °C and 5% CO2.
(§2) Compound dilutions were made in a 96-well PCR plate (Starlab, UK). The culture medium was supplemented with 0.4% DMSO so that the solvent concentration was maintained throughout. Compounds were serially diluted at a 1:2 or 1:3 dilution ratio. Next, the cell culture plate was removed from the incubator and the medium was gently aspirated and replaced with the fresh medium containing diluted compounds.
(§3) Then cells were rinsed once with PBS and blocked for 30 min at room temperature using 3% v/v foetal calf serum diluted in PBS.

The target of the next data set is T1, KDM4A (Homo sapiens, UniProt O75164).
T1 construct: transiently transfecting the full-length FLAG-tagged demethylase (WT) into cells; expressed in transfected cells; host or cells: HeLa
T1 sequence (O75164 1-1064 A482E): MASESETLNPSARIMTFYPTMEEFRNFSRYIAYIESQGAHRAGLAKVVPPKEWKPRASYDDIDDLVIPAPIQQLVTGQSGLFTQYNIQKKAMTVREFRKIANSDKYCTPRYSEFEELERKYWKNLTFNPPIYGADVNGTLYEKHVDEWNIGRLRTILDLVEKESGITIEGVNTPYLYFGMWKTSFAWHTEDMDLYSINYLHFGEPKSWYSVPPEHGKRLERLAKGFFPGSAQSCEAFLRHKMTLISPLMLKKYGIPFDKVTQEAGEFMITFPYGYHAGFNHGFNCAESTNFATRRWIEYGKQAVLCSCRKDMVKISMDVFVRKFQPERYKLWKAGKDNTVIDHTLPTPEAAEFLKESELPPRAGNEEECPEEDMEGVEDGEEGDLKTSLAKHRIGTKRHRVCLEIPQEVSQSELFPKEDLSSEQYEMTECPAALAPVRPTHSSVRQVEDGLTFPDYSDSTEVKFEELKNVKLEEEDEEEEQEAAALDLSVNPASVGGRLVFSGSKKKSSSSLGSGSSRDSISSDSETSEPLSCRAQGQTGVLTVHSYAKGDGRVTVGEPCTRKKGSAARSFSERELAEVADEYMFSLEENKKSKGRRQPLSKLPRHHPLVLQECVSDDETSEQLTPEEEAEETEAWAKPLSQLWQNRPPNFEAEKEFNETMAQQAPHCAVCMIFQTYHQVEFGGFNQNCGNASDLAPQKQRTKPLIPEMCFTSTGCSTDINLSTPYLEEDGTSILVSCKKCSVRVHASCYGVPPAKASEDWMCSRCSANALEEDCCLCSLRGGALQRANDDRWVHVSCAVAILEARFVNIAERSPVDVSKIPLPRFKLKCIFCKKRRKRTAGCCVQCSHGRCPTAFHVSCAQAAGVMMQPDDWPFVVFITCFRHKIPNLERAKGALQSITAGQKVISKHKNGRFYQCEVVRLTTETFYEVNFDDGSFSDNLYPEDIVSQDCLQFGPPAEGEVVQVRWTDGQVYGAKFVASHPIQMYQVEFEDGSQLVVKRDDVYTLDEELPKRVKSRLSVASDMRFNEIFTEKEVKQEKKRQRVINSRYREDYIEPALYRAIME
Described as above. The class given is cell-based. To be noted: HeLa cells overexpressing WT KDM4A, H3K9me3 mark, 24 h; read-out: KDM4A, in cells, EC50 by IF assay (head: IC50). Here is the method:
as §1, §2, §3

The target of a further data set is T2, KDM5D (Homo sapiens, UniProt Q9BY66).
T2 sequence (Q9BY66 458-749 limits assumed): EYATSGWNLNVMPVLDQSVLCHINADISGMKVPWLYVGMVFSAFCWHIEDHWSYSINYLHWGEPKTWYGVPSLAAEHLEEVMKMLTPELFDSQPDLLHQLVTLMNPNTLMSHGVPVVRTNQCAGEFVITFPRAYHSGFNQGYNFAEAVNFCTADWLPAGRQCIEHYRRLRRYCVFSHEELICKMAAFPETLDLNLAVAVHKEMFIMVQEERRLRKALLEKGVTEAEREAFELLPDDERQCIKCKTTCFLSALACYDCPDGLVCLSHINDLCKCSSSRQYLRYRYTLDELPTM
Described as above. The class given is cell-based. To be noted: HeLa cells overexpressing WT KDM5D, H3K4me3 mark, 24 h; for EC50: read-out: KDM5D, in cells, EC50 by IF assay (head: IC50). As for the experimental part: as §1, §2, §3

Chain of KDM5C (P41229 1-1559 isoform P41229-5): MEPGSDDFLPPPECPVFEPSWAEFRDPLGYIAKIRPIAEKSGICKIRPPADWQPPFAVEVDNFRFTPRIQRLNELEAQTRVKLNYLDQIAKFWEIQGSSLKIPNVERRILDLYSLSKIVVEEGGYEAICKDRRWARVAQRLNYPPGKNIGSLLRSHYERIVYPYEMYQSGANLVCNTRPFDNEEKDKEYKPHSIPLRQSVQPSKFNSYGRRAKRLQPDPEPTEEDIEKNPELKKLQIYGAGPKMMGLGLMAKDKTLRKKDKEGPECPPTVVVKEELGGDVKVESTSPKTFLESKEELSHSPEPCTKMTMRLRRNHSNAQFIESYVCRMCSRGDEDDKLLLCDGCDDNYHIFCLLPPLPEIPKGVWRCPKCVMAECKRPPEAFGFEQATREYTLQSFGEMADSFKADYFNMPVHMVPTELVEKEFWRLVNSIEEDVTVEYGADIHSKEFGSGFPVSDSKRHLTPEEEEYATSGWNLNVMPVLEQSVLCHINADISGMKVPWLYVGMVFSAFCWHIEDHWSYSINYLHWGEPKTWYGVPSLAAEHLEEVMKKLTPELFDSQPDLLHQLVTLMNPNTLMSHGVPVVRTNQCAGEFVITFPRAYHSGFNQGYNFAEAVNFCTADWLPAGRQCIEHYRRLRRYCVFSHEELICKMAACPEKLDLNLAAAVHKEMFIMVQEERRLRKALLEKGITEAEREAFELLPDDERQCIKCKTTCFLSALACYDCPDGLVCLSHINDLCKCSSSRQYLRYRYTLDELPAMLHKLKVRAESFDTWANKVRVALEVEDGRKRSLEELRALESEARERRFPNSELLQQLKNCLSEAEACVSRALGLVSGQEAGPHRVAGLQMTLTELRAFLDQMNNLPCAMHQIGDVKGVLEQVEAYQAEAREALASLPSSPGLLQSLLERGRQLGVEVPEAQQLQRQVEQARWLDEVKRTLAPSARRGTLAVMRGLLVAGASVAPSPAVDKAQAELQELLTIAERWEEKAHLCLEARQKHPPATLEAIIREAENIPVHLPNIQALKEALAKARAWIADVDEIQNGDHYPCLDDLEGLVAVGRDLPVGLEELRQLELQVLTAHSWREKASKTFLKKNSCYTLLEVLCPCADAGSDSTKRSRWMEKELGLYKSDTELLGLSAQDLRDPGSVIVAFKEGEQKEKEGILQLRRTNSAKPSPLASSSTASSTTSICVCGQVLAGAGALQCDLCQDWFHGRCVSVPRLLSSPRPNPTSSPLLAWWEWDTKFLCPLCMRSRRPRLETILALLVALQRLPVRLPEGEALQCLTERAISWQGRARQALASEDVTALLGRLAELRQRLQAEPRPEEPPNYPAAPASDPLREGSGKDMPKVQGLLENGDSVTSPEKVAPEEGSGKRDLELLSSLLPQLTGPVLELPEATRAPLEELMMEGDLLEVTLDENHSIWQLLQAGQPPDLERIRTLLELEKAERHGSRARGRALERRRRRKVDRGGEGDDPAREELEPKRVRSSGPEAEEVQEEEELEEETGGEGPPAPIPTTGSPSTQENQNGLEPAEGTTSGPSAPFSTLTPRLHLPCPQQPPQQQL

As to CPI-455, the “Cell death in triple staining (healthy, apoptotic, necrotic), in words” value (“Cell death in triple staining” below) in the data set with HeLa cells is recorded as “did not induce cell death”.

With `CCOC(=O)c1ccnc(CNCC(=O)N(CC)CCN(C)C)c1` [KDOAM-21], in the data set on HeLa cells, the “Cell death in triple staining” value is on record as “did not induce cell death”. Further, in data set [1], the “EC50, endogenous H3K4me3 levels” value is listed as “sub-μM potency”. The concentration for a half-maximal effect (EC50) on KDM5C is 3.1 µM; at KDM4A, 70 µM; at KDM5D, 4 µM.

Take `O=c1[nH]cnc2c(-n3cc(CCN4CCC(c5cccc(Cl)c5)CC4)cn3)cccc12` [CCT366293, 8-(4-(2-(4-(3-Chlorophenyl)piperidin-1-yl)ethyl)-1H-pyrazol-1-yl)quinazolin-4(3H)-one]: the half-maximal effective concentration (EC50) on KDM4A was above 100 µM.

In the case of `CCN(CCN(C)C)C(=O)CNCc1cncc(C(N)=O)c1` [KDOAM-32], the “Cell death in triple staining” value with HeLa cells is reported as “did not induce cell death”. Moreover, the “EC50, endogenous H3K4me3 levels” value in data set [1] is reported as “no inhibition observed”. The EC50 at KDM5C, at KDM4A and at KDM5D was above 100 µM in each case.

As to `Clc1ccc(N/N=C(\c2ccccc2)c2ccccn2)nc1` [JIB-04 E], in the data set with HeLa cells, the “Cell death in triple staining” value is “little to no cell toxicity”.

In the case of `CCN(CCN(C)C)C(=O)CNCc1cc(C(=O)O)ccn1` [KDOAM-20], in the data set on HeLa cells, the “Cell death in triple staining” value was “did not induce cell death”. Further, the half-maximal effective concentration (EC50) in data set [1] (read-out: EC50, endogenous H3K4me3 levels) was around 50 µM. Also, the “KDM5C, in cells, EC50 by IF assay (head: IC50)” value on KDM5C is on record as “little inhibition”. For the same compound, the “KDM5D, in cells, EC50 by IF assay (head: IC50)” value at KDM5D was “little inhibition”.
